“And” between values parts separate entries of the source, which are not always exact repeats. Equal entries are not always repeated.
The compounds below were run on SREBP (assay: SREBP induction in human liver (HepG2) cells, RT-PCR). Conditions: 300 nM; HepG2; Table 5.
Type: cell-based
Protocol: The SREBP transcription factor is involved in triglyceride synthesis, and its activation correlates with increased triglycerides in vivo. […] Lower numbers indicate better safety. […] Lower numbers indicate better safety. Also, for Table 6, SREBP activation was measured as fold induction compared to DMSO, where a lower value indicates the compound is an improvement over a control.

| SMILES | Safety SREBP mRNA fold induction at 300 nM |
| --- | --- |
| C=C(c1ncc(C(=O)O)cn1)c1cc2c(cc1C)C(C)(C)CCC2(C)C [Pyrimidine Bexarotene, reference compound] | 1.19 ± .1 fold |

Same assay, conditions: fold induction compared to DMSO; several values per cell; Table 6

| SMILES | SREBP activation |
| --- | --- |
| CC(C)CN(c1cc(C(C)(C)C)cc(C(C)(C)C)c1)c1ccc(C(=O)O)cn1 [drawing 122] | 1.7 fold induction and 2.0 fold induction |
| CC(C)(C)c1cc(-n2c(C(F)(F)F)nc3cc(C(=O)O)ccc32)cc(C(C)(C)C)c1 [drawing 109] | 3.4 fold induction and 2.1 fold induction |
| CCCCN(c1cc(C(C)(C)C)cc(C(C)(C)C)c1)c1ccc(C(=O)O)cn1 [drawing 123] | 5.3 fold induction |
| C=C(c1ccc(C(=O)O)cc1)c1cc(C(C)(C)C)ccc1OCC [drawing 108] | 2.1 fold induction |
| C=C(c1ccc(C(=O)O)cc1)c1cc2c(cc1C)CCCC2(C)C | 2.0 fold induction |
| CCOc1c(N(CC)c2ccc(C(=O)O)cc2)cc(C(C)(C)C)cc1C(C)(C)C [drawing 107] | 2.4 fold induction |
| CCN(c1ccc(C(=O)O)cn1)c1cc(C(C)(C)C)ccc1C [drawing 112] | 2.7 fold induction and 2.2 fold induction |

Same assay, conditions: human, HepG2 cells (human liver carcinoma); 300 nM; HepG2; Table 5; read-out: Safety SREBP mRNA fold induction at 300 nM

| SMILES | fold induction at 0.3 µM |
| --- | --- |
| CC(C)(C)c1cc(N(CC2CC2)c2ncc(C(=O)O)cn2)cc(C(C)(C)C)c1 | 1.46 ± 0.2 |
| C=C(c1ccc(C(=O)O)cc1)c1cc(C(C)C)c(OC(C)C)cc1C [drawing 74] | 1.08 ± 0.1 |
| CCOc1c(N(CC)c2ccc(C(=O)O)cc2)cc(C(C)(C)C)cc1C(C)(C)C [drawing 67] | 1.59 ± 0.2 |
| Cc1ccc(C(C)(C)C)cc1N(CC(C)C)c1ccc(C(=O)O)cn1 | 4.93 ± 2.7 |
| CC(C)(C)c1cc(N(Cc2ccccc2)c2ccc(C(=O)O)cn2)cc(C(C)(C)C)c1 [drawing 93] | 1.94 ± 0.04 |
| CCN(c1ccc(C(=O)O)cc1)c1cc(C(C)C)c(OCC(C)C)cc1C [drawing 80] | 1.45 ± 0.2 |
| CC(C)N(c1cc(C(C)(C)C)cc(C(C)(C)C)c1)c1ccc(C(=O)O)cn1 | 1.65 ± 0.1 |
| C=C(c1ccc(C(=O)O)cc1)c1cc(C(C)C)c(OCC(C)C)cc1C [drawing 71] | 1.67 ± 0.2 |
| CCCN(c1cc(C(C)(C)C)cc(C(C)(C)C)c1)c1ncc(C(=O)O)cn1 | 1.25 ± 0.1 |
| C=C(c1ccc(C(=O)O)cc1)c1cc(C(C)(C)C)cc(C(C)(C)C)c1 [drawing 76] | 1.12 ± 0.5 |
| C=C(c1ccc(C(=O)O)cc1)c1cc2c(cc1C)C(C)(C)CCC2(C)C [drawing 61] | 2.23 ± 0.5 |
| CCN(c1cc(C(F)(F)F)cc(C(F)(F)F)c1)c1ccc(C(=O)O)cn1 [drawing 79] | 0.96 ± 0.5 |
| CCN(c1ccc(C(=O)O)cn1)c1cc(C(C)(C)C)ccc1C [drawing 72] | 1.59 ± 0.5 |
| CC(C)CN(c1cc(C(F)(F)F)cc(C(F)(F)F)c1)c1ccc(C(=O)O)cn1 | 1 ± 0.03 |
| CCN(c1cc(C(C)(C)C)cc(C(C)(C)C)c1)c1ccc(C(=O)O)cn1 [drawing 65] | 2.62 ± 0.7 |
| CC(C)CN(c1cc(C(C)(C)C)cc(C(C)(C)C)c1)c1ncc(C(=O)O)cn1 | 2.46 ± 0.5 |
| Cc1ccc(C(C)(C)C)cc1N(c1ccc(C(=O)O)cn1)C(C)C | 0.98 ± 0.06 |
| CCCN(c1cc(C(C)(C)C)cc(C(C)(C)C)c1)c1ccc(C(=O)O)cn1 [drawing 77] | 2.15 ± 0.7 |
| CC(C)CN(c1cc(C(C)(C)C)cc(C(C)(C)C)c1)c1ccc(C(=O)O)cn1 [drawing 82] | 1.49 ± 0.6 |
| Cc1cc2c(cc1C1(c3ncc(C(=O)O)cn3)CC1)C(C)(C)CCC2(C)C [drawing 63] | 1.17 ± 0.1 |
| CC(C)(C)c1cc(N(CC2CC2)c2ccc(C(=O)O)cn2)cc(C(C)(C)C)c1 [drawing 78] | 2.48 ± 1.8 |
| CCCCN(c1cc(C(C)(C)C)cc(C(C)(C)C)c1)c1ccc(C(=O)O)cn1 [drawing 83] | 5.6 ± 3.6 |
| CCN(c1ccc(C(=O)O)cc1)c1cc(C(C)(C)C)c(OC)c(C(C)(C)C)c1 [drawing 81] | 1.63 ± 0.3 |
| CCCN(c1ccc(C(=O)O)cn1)c1cc(C(C)(C)C)ccc1C | 1.8 ± 0.2 |
| CC(C)N(c1cc(C(C)(C)C)cc(C(C)(C)C)c1)c1ncc(C(=O)O)cn1 | 2.46 ± 0.8 |
| CCN(c1ccc(C(=O)O)cc1)c1cc(C(C)(C)C)cc(C(C)(C)C)c1 [drawing 64] | 1.37 ± 0.3 |
| CCN(c1cc(C(C)(C)C)cc(C(C)(C)C)c1)c1ncc(C(=O)O)cn1 [drawing 66] | 1.38 ± 0.4 |
| CC(C)(C)c1cc(-n2c(C(F)(F)F)nc3cc(C(=O)O)ccc32)cc(C(C)(C)C)c1 [drawing 69] | 1.58 ± 0.2 |

The compounds below were run on inducible nitric oxide synthase (iNOS) (assay: iNOS suppression / NO assay in LPS-stimulated macrophages or RAW264.7 cells (Griess reaction)). Conditions: Mus musculus, RAW264.7, 24 h, read-out: iNOS (300 nM).
Type: cell-based, mouse
Protocol: Macrophages or RAW264.7 like-cells were treated with various concentrations of rexinoids and stimulated with lipopolysaccaride (LPS) to activate inducible nitric oxide synthase (iNOS) to produce nitric oxide. This in vitro iNOS assay was rapid, reproducible, quantitative and predictive. Nitric oxide is implicated in the apoptosis of cancer cells via regulation of RXRs. There is a tight correlation between the % reduction of iNOS and efficacy in preclinical lung cancer models. Lower numbers indicate higher efficacy.
RAW264.7 cells were incubated with 300 nM rexinoids and stimulated with 1-2 ng/ml lipopolysaccaride (LPS) for 24 hours to activate inducible nitric oxide synthase (iNOS) to produce nitric oxide. Nitric oxide released into the media was measured by the Griess reaction.
Also, for Table 6, the iNOS suppression is the percent of the LPS-stimulated control where the compounds were measured at 100 nM or 300 nM.
Macrophages or RAW264.7 cells were treated with various concentrations of rexinoids listed in Table 7 and stimulated with lipopolysaccaride (LPS) to activate inducible nitric oxide synthase (iNOS) to produce nitric oxide. Nitric oxide (NO) is implicated in the apoptosis of cancer cells via regulation of RXRs. There is a tight correlation between the % reduction of iNOS and efficacy in preclinical lung cancer models. The in vitro iNOS assay is rapid, reproducible, quantitative and predictive, as NO production is measured in culture medium using the Griess reaction. Values are either presented as % inhibition or IC50 values.

| SMILES | activity at 0.3 µM |
| --- | --- |
| C=C(c1ccc(C(=O)O)cc1)c1cc(C(C)C)c(OC(C)C)cc1C [Compound 1, 4-{1-[2-methyl-5-(propan-2-yl)-4-(propan-2-yloxy)phenyl]ethenyl}benzoic Acid] | 41% |
| C=C(c1ccc(C(=O)O)cc1)c1cc(C(C)(C)C)ccc1OCC [Compound 4, 4-[1-(5-tert-butyl-2-ethoxyphenyl)ethenyl]benzoic Acid] | 65% |
| C=C(c1ccc(C(=O)O)cc1)c1ccc(OCC(C)C)c(C(C)C)c1 [Compound 5, 4-{1-[3-iso-propyl-4-(2-methylpropoxy)phenyl]ethenyl}benzoic Acid] | 65% |

Same assay, conditions: Mus musculus, RAW264.7, 24 h; at 300 nM; percent of the LPS-stimulated control, lower is better; Table 6; read-out: iNOS suppression

| SMILES | activity at 0.3 µM |
| --- | --- |
| CC(C)(C)c1cc(-n2c(C(F)(F)F)nc3cc(C(=O)O)ccc32)cc(C(C)(C)C)c1 [drawing 109] | 45% |
| C=C(c1ccc(C(=O)O)cc1)c1cc(C(C)(C)C)ccc1OCC [drawing 108] | 67% |
| C=C(c1ccc(C(=O)O)cc1)c1cc2c(cc1C)CCCC2(C)C | 55% |
| CCOc1c(N(CC)c2ccc(C(=O)O)cc2)cc(C(C)(C)C)cc1C(C)(C)C [drawing 107] | 60% |
| CCN(c1ccc(C(=O)O)cn1)c1cc(C(C)(C)C)ccc1C [drawing 112] | 60% |

Same assay, conditions: Mus musculus, RAW264.7; Table 7

| IC50 | SMILES |
| --- | --- |
| 100 to 200 nM | CC(C)N(c1ccc(C(=O)O)cn1)c1cc(C(C)(C)C)cc2c1CCC2(C)C [6-[(6-tert-butyl-1,1-dimethyl-2,3-dihydro-1H-inden-4-yl)(propan-2-yl)amino]pyridine-3-carboxylic Acid] |
| 300 to 600 nM | Cc1ccc(N(CC(C)C)c2ccc(C(=O)O)cn2)cc1C(F)(F)F [6-{[4-methyl-3-(trifluoromethyl)phenyl](2-methylpropyl)amino}pyridine-3-carboxylic Acid] |
| 200 to 300 nM | CC(C)(C)c1cc(N(CC2CC2)c2ncc(C(=O)O)cn2)c2c(c1)C(C)(C)CC2 |
| 300 to 600 nM | CC(C)(C)c1cc(N(Cc2ccccc2)c2ccc(C(=O)O)cn2)cc(C(C)(C)C)c1 [drawing 195, 6-[benzyl(3,5-di-tert-butylphenyl)amino]pyridine-3-carboxylic Acid] |
| 300 to 600 nM | Cc1ccc(N(c2ccc(C(=O)O)cn2)C(C)C)cc1C(F)(F)F |
| 100 to 200 nM | CCCN(c1ccc(C(=O)O)cn1)c1cc(C(C)(C)C)cc2c1CCC2(C)C |
| 300 to 600 nM | CCCN(c1ccc(C)c(C(F)(F)F)c1)c1ccc(C(=O)O)cn1 [6-{[4-methyl-3-(trifluoromethyl)phenyl](propyl)amino}pyridine-3-carboxylic Acid] |
| 300 to 600 nM | CCCCN(c1ncc(C(=O)O)cn1)c1cc(C(C)(C)C)cc2c1CCC2(C)C |
| 300 to 600 nM | Cc1cc(N(CC(C)C)c2ccc(C(=O)O)cn2)cc(C(F)(F)F)c1 |
| 100 to 200 nM | CC(C)N(c1cc(C(F)(F)F)cc(C(F)(F)F)c1)c1ncc(C(=O)O)cn1 |
| 300 to 600 nM | CC(C)N(c1ncc(C(=O)O)cn1)c1cc(C(C)(C)C)cc2c1CCC2(C)C |
| 300 to 600 nM | Cc1ccc(N(CC2CC2)c2ccc(C(=O)O)cn2)cc1C(F)(F)F |
| 100 to 200 nM | CC(C)(C)c1cc(N(CC2CC2)c2ccc(C(=O)O)cn2)c2c(c1)C(C)(C)CC2 |
| 300 to 600 nM | CCCN(c1ncc(C(=O)O)cn1)c1cc(C(C)(C)C)cc2c1CCC2(C)C |
| 300 to 600 nM | CC(C)CN(c1ncc(C(=O)O)cn1)c1cc(C(C)(C)C)cc2c1CCC2(C)C |
| 100 to 200 nM | CCCCN(c1ccc(C(=O)O)cn1)c1cc(C(C)(C)C)cc2c1CCC2(C)C |
| 100 to 200 nM | CC(C)CN(c1ccc(C(=O)O)cn1)c1cc(C(C)(C)C)cc2c1CCC2(C)C |

Same assay, conditions: Mus musculus; 300 nM; RAW264.7, 1-2 ng/ml LPS, 24 hours; Table 3; read-out: iNOS (300 nM)

| SMILES | activity at 0.3 µM |
| --- | --- |
| C=C(c1ccc(C(=O)O)cc1)c1cc(C(C)C)c(OCC)cc1C [Compound 2, 4-{1-[4-ethoxy-2-methyl-5-(propan-2-yl)phenyl]ethenyl}benzoic Acid] | 45% |

Reference: US20220089540A1 (Board of Trustees of Michigan State University, priority 2019, published 2022)
